# Earlier results in PMC11457607 (Oncoimmunology, 2024).
# Experiments:
# SSTR2 = details: cyclic peptide agonist; in words
# SSTR5 = details: cyclic peptide agonist; in words
# [1] = clinical diagnostic dye, i.v.
# NETs = details: local irradiation, clinical trials
compound,measurement,setting,value
DOTA-Tyr[3]-octreotate [DOTA-TATE],affinity to SSTR2,SSTR2,high affinity to SSTR2
same,affinity to SSTR5,SSTR5,binds with a high affinity to SSTR2 and SSTR5
O=C1OC2(c3ccc(O)cc3Oc3cc(O)ccc32)c2ccccc21 [fluorescein],safety of intravenous injection,[1],without reported overt safety concerns
[^177Lu]Lu-DOTA-TATE,slowing progression of NETs,NETs,high specificity and efficacy in slowing the progression of NETs
